These results are taken from patent US20240374618A1, “COMPOSITION OF TANNIC ACID AND VITAMIN D AND METHODS OF USE” (Nulastin, Inc., priority 2021, published 2024).

In assay [1] the test system is human dermal fibroblasts. The assay is described as follows: Immunodetection of elastin in cultured human dermal fibroblasts. In kind it is cell-based. Particulars: for elastin concentration: FIGS. 1A-1C. The protocol:
Biological effects of tannic acid in the presence of hyaluronic acid or ferulic acid were tested on dermal fibroblasts derived from punch biopsies of healthy skin. All fibroblasts were isolated by allowing migration out of skin explants and passaged by trypsinization. Fibroblasts were maintained in alpha-minimum essential medium supplemented with 20 mM HEPES, 1% antibiotics and antimycotics, 1% L-Glutamate and 2% fetal bovine serum (FBS). Cells were plated (50×10^5 cells/dish) to reach confluency and were cultured for 7 days in the presence or absence of hyaluronic acid (0.1%), ferulic acid (5 μg/mL), tannic acid (2 μg/mL), or a combination thereof.
Cell cultures prepared according to Example 1 maintained in the presence or absence of tannic acid, hyaluronic acid, or ferulic acid were fixed in cold 100% methanol at […] for detection of elastin or in 4% paraformaldehyde at room temperature for detection of collagen I. The multiple parallel cultures were incubated with […] of polyclonal antibody to tropoelastin (Elastin Products, Owensville, MI), or polyclonal antibody to collagen type I (Chemicon, Temecula, CA). Cultures were incubated with the respective fluorescein-conjugated goat anti-rabbit, goat anti-mouse, or rabbit anti-goat secondary antibodies. Nuclei were counter stained with propidium iodide (Sigma, St. Louis, MO). All cultures were examined with a Nikon Eclipse E1000 microscope attached to a cooled CCD camera (QImaging, Retiga EX) and analyzed with the computer-generated morphometric analysis system, in which the Image-Pro Plus software (Media Cybernetics, Silver Springs, MD) estimates the proportion of areas marked with green fluorescence, in relation to the entire (1 square mm) analyzed field.
Cultured human dermal fibroblasts were grown in the presence or absence of tannic acid at low concentration (2 μg/mL) and high concentration (20 μg/mL). Immunodetection of elastin was performed as described in Example 2.
(§1) Cultured human dermal fibroblasts were grown in the presence of or absence of vitamin D (10^−7 M), tannic acid ([…]), or a combination of vitamin D and tannic acid (2 μg/mL) (FIGS. 2A-2B and FIGS. 3A-3C). Immunodetection of elastin was performed as described above.
Cultured human dermal fibroblasts were grown in the presence of or absence hyaluronic acid (0.1%), tannic acid (2 μg/mL), or a combination of hyaluronic acid (0.1%) and tannic acid (2 μg/mL). Immunodetection of elastin was performed as described above.
Cultured human dermal fibroblasts were grown in the presence or absence of ferulic acid (5 μg/mL), tannic acid (2 μg/mL), or a combination of ferulic acid (5 μg/mL) and tannic acid (2 μg/mL). Immunodetection of elastin and collagen I was performed as described above. Results are shown in FIGS. 5A-5C, and FIGS. 6A-6B for elastin and FIGS. 7A-7C and FIG. 8 for collagen.
Cultured human dermal fibroblasts were grown in the presence or absence of ferulic acid (20 μM), tannic acid (2 μg/mL), or copper sulfate (2 μM). Fibroblasts were also grown in presence of a combination of ferulic acid (20 μM) and copper sulfate (2 μM), a combination of ferulic acid (20 μM) and tannic acid (2 μg/mL), and a combination of tannic acid (2 μg/mL) and copper sulfate (2 μM). Immunodetection of elastin was performed as described above.

Assay [2] relates to fibroblast cultures. Description: Amount of tropoelastin in fibroblast cultures measured using PCR. It is filed as cell-based, human. Particulars: tannic acid added to cultures that contained vitamin D3; PCR after 18 hours; FIG. 2A. The protocol: FIG. 2A depicts the amount of tropoelastin in fibroblast cultures measured using PCR after 18 hours.
as §1

Consider `O=C(OC[C@H]1O[C@@H](OC(=O)c2cc(O)c(O)c(OC(=O)c3cc(O)c(O)c(O)c3)c2)[C@H](OC(=O)c2cc(O)c(O)c(OC(=O)c3cc(O)c(O)c(O)c3)c2)[C@@H](OC(=O)c2cc(O)c(O)c(OC(=O)c3cc(O)c(O)c(O)c3)c2)[C@@H]1OC(=O)c1cc(O)c(O)c(OC(=O)c2cc(O)c(O)c(O)c2)c1)c1cc(O)c(O)c(OC(=O)c2cc(O)c(O)c(O)c2)c1` [tannic acid], for which the “net deposition of elastin” value in assay [1] (tannic acid (2 μg/mL) added to hyaluronic acid (0.1%)) and in assay [1] (tannic acid (2 μg/mL) added to vitamin D (10^−7 M)) was “improvement in net deposition of elastin” in each case. Further, in assay [1] (tannic acid (2 μg/mL) in the presence of ferulic acid (5 μg/mL)), the production of elastin result is on record as “improved production of elastin even in the presence of ferulic acid”. In addition, the elastin concentration result in assay [1] (tannic acid at high concentration (20 μg/mL)) was “caused elastosis”; in assay [1] (tannic acid at low concentration (2 μg/mL)) it was “improved elastin concentration”. The amount of tropoelastin result in assay [2] is recorded as “increased the amount of tropoelastin”.
Turning to hyaluronic acid, the elastin production result in assay [1] (hyaluronic acid (0.1%) alone) was “inhibition of elastin production”.
For the molecule vitamin D, the elastin production entry in assay [1] (vitamin D (10^−7 M) alone) is reported as “inhibition of elastin production”.
